Test results: paper PMC6104039 (Nature Communications, 2018)
Several values for one entry are separate records, joined by “and”; a condition that tells them apart may be missing. Identical values can stand only once.

System: adipose tissue
Test: Ceramide and SM species in epididymal adipose tissue
Format: in vivo, mice
Conditions: for Ceramide 18:1/16:0 content of white adipose tissue / Ceramide 18:1/18:0 content of white adipose tissue / Ceramide 18:1/20:0 content of white adipose tissue / Ceramide 18:1/22:0 content of white adipose tissue / Ceramide 18:1/24:0 content of white adipose tissue / Ceramide 18:1/24:1 content of white adipose tissue / Ceramide 18:2/18:0 content of white adipose tissue / Ceramide 18:2/22:0 content of white adipose tissue / Ceramide 18:2/24:0 content of white adipose tissue / Ceramide 18:2/24:1 content of white adipose tissue / SM 34:1 content of white adipose tissue / SM 34:2 content of white adipose tissue / SM 36:1 content of white adipose tissue / SM 36:2 content of white adipose tissue / SM 38:1 content of white adipose tissue / SM 38:2 content of white adipose tissue / SM 40:1 content of white adipose tissue / SM 40:2 content of white adipose tissue / SM 42:1 content of white adipose tissue / SM 42:2 content of white adipose tissue / SM 42:3 content of white adipose tissue: individual values; for Ceramide 18:1/16:0 content of white adipose tissue / Ceramide 18:1/18:0 content of white adipose tissue / Ceramide 18:1/20:0 content of white adipose tissue / Ceramide 18:1/22:0 content of white adipose tissue / Ceramide 18:1/24:0 content of white adipose tissue / Ceramide 18:1/24:1 content of white adipose tissue / Ceramide 18:2/18:0 content of white adipose tissue / Ceramide 18:2/22:0 content of white adipose tissue / Ceramide 18:2/24:0 content of white adipose tissue / Ceramide 18:2/24:1 content of white adipose tissue: raw data Fig 3l; for SM 34:1 content of white adipose tissue / SM 34:2 content of white adipose tissue / SM 36:1 content of white adipose tissue / SM 36:2 content of white adipose tissue / SM 38:1 content of white adipose tissue / SM 38:2 content of white adipose tissue / SM 40:1 content of white adipose tissue / SM 40:2 content of white adipose tissue / SM 42:1 content of white adipose tissue / SM 42:2 content of white adipose tissue / SM 42:3 content of white adipose tissue: raw data Fig 3m
Procedure: Male C57BL6/J mice were obtained from the Animal Resources Centre in Perth (WA, Australia). Mice were housed at 22 ± 1 °C with a controlled 12:12 h light-dark cycle and had ad libitum access to water and either chow (8% calories from fat) or HFD (45% calories from fat)[66] for 4–6 weeks. […] Treatment was commenced at the same time as mice were randomised to dietary groups. The experiments were approved by the UNSW animal care and ethics committee (ACEC 15/48B), and followed guidelines issued by the National Health and Medical Research Council of Australia.
Lipids were extracted from frozen tissue samples or cells using a two-phase procedure with methyl-tert-butyl ether (MTBE)/methanol/water (10:3:2.5, v/v/v)[67]. Frozen tissue samples (~20 mg) were homogenized in 0.2 mL methanol containing 0.01% butylated hydroxytoluene (BHT), using a Precellys 24 homogenizer and Cryolys cooling unit (Bertin Technologies) with CK14 (1.4-mm ceramic) beads. The homogenates were spiked with an internal standard mixture comprising 5 nmole 19:0/19:0 phosphatidylcholine and 2 nmole each of 17:0/17:0 phosphatidylethanolamine, 17:0/17:0 phosphatidylserine, 17:0/17:0 d5-diacylglycerol, 17:0/17:0 phosphatidylglycerol, 14:0/14:0/14:0/14:0 cardiolipin, 18:1/12:0 SM, 18:1/17:0 ceramide, 18:1/12:0 glucosylceramide, 18:1/12:0 lactosylceramide, 18:1/12:0 sulfatide (all from Avanti Polar Lipids, USA), and 17:0/17:0/17:0 TAG (Cayman Chemical, USA), then transferred to 10 mL screw cap glass tubes. The homogenization tubes containing beads were then washed with another 0.3 mL methanol, and this wash was combined with the first methanol extract, after which 1.7 mL MTBE was added and the samples were sonicated in an ice-cold sonicating water bath (Thermoline Scientific, Australia) for 30 min. Phase separation was induced by addition of 417 µL of mass spectrometry-grade water followed by vortexing and centrifugation at 1000 × g for 10 min. The upper organic phase was collected into 5 mL glass tubes. The lower phase was re-extracted by adding 1 mL MTBE, 300 μL methanol, and 250 μL water. The organic phases were combined in the 5 mL glass tubes and dried under vacuum in a Savant SC210 SpeedVac (Thermo Scientific), then reconstituted in 500 μL methanol and stored at −20 °C until analysis.
Lipidomic profiling was performed on a QExactive Plus mass spectrometer with heated electrospray ionization (HESI) probe and a Dionex UltiMate 2000 LC pump (Thermo Fisher Scientific). Extracts were resolved on a 2.1 × 100 mm Waters Acquity C18 UPLC column (1.7 µm […]), using a binary gradient in which mobile phase A consisted of acetonitrile:water (60:40), 10 mM ammonium formate, 0.1% formic acid; and mobile phase B was isopropanol:acetonitrile (90:10), 10 mM ammonium formate, 0.1% formic acid[68]. The flow rate was 260 µL/min and column oven 55 °C. Data was acquired in full scan/data-dependent MS^2 mode (full scan resolution 70,000 FWHM, scan range 400–1200 m/z). The ten most abundant ions in each cycle were subjected to MS^2 using an isolation window of 1.4 m/z, collision energy 30 eV, resolution 17,500, maximum integration time 110 ms and dynamic exclusion window 10 s. An exclusion list of background ions was used based on a solvent blank. LipidSearch v4.1.30 software (ThermoFisher Scientific) was used for chromatogram alignment, peak identification and integration. Each lipid peak was manually verified for column elution time and characteristic fragment ions. Data were then exported to an Excel spreadsheet for normalisation of each lipid to its class-specific internal standard, and lipid concentrations were calculated relative to the internal standard.

SMILES: C[C@@](N)(CO)CCc1ccc(OCc2ccc(Cl)c(Cl)c2)cc1 [P053, (S)-2-amino-4-(4-(3,4-dichlorobenzyloxy)phenyl)-2-methylbutan-1-ol]
- Ceramide 18:1/16:0 content of white adipose tissue (Chow + P053): 10.929 and 4.227 and 17.193 and 8.156 and 14.726 and 6.210 and 17.172 and 6.636 and 12.272 and 15.061
- Ceramide 18:1/18:0 content of white adipose tissue (Chow + P053): 2.114 and 0.846 and 3.339 and 1.520 and 2.375 and 1.130 and 3.918 and 1.468 and 2.718 and 2.056
- Ceramide 18:1/20:0 content of white adipose tissue (Chow + P053): 1.814 and 0.867 and 3.626 and 1.453 and 2.395 and 1.178 and 2.617 and 1.217 and 2.593 and 1.998
- Ceramide 18:1/22:0 content of white adipose tissue (Chow + P053): 4.127 and 2.201 and 7.564 and 3.535 and 5.536 and 3.049 and 7.800 and 3.557 and 5.828 and 4.572
- Ceramide 18:1/24:0 content of white adipose tissue (Chow + P053): 6.125 and 3.020 and 12.234 and 6.320 and 9.940 and 4.064 and 14.430 and 5.790 and 10.017 and 7.844
- Ceramide 18:1/24:1 content of white adipose tissue (Chow + P053): 10.504 and 6.110 and 22.417 and 11.780 and 19.731 and 7.603 and 26.592 and 10.551 and 18.107 and 16.532
- Ceramide 18:2/18:0 content of white adipose tissue (Chow + P053): 1.183 and 0.312 and 1.256 and 0.618 and 1.358 and 0.382 and 1.268 and 0.527 and 0.931 and 1.219
- Ceramide 18:2/22:0 content of white adipose tissue (Chow + P053): 2.177 and 0.918 and 3.608 and 1.721 and 2.577 and 1.375 and 2.989 and 1.482 and 2.309 and 2.564
- Ceramide 18:2/24:0 content of white adipose tissue (Chow + P053): 4.508 and 1.750 and 7.166 and 3.688 and 5.287 and 2.715 and 7.269 and 3.296 and 4.451 and 6.052
- Ceramide 18:2/24:1 content of white adipose tissue (Chow + P053): 4.820 and 2.648 and 9.228 and 4.871 and 7.660 and 3.147 and 9.518 and 3.932 and 5.805 and 6.812
- SM 34:1 content of white adipose tissue (Chow + P053): 276.61 and 66.44 and 226.46 and 212.93 and 276.78 and 111.51 and 327.37 and 118.77 and 188.15 and 267.47
- SM 34:2 content of white adipose tissue (Chow + P053): 23.85 and 2.33 and 6.66 and 4.19 and 4.83 and 3.15 and 5.28 and 2.34 and 3.58 and 6.77
- SM 36:1 content of white adipose tissue (Chow + P053): 33.66 and 9.97 and 25.23 and 24.39 and 28.26 and 12.44 and 31.61 and 15.13 and 21.89 and 30.09
- SM 36:2 content of white adipose tissue (Chow + P053): 12.60 and 1.84 and 8.68 and 8.41 and 12.18 and 3.45 and 12.76 and 4.74 and 5.44 and 12.73
- SM 38:1 content of white adipose tissue (Chow + P053): 22.37 and 7.77 and 26.08 and 17.58 and 21.03 and 10.59 and 19.70 and 11.77 and 20.28 and 19.73
- SM 38:2 content of white adipose tissue (Chow + P053): 5.83 and 1.41 and 5.52 and 4.51 and 5.60 and 2.81 and 4.44 and 2.01 and 3.84 and 6.42
- SM 40:1 content of white adipose tissue (Chow + P053): 44.87 and 18.02 and 56.10 and 41.83 and 53.17 and 20.49 and 52.33 and 23.88 and 40.81 and 43.57
- SM 40:2 content of white adipose tissue (Chow + P053): 12.98 and 4.14 and 11.80 and 8.16 and 10.55 and 6.16 and 10.26 and 5.10 and 7.07 and 11.44
- SM 42:1 content of white adipose tissue (Chow + P053): 28.12 and 11.04 and 39.22 and 23.51 and 29.01 and 11.65 and 31.95 and 14.81 and 26.21 and 27.56
- SM 42:2 content of white adipose tissue (Chow + P053): 81.27 and 33.26 and 95.54 and 83.35 and 95.85 and 36.01 and 109.30 and 44.61 and 71.06 and 85.15
- SM 42:3 content of white adipose tissue (Chow + P053): 22.64 and 7.14 and 18.55 and 16.77 and 22.11 and 8.66 and 22.41 and 8.50 and 11.09 and 21.29
- Ceramide 18:1/16:0 content of white adipose tissue (HFD + P053): 7.201 and 8.054 and 16.149 and 4.934 and 4.539 and 15.378 and 9.982 and 4.818 and 11.537 and 7.369
- Ceramide 18:1/18:0 content of white adipose tissue (HFD + P053): 2.978 and 2.646 and 5.343 and 1.908 and 1.464 and 4.498 and 3.784 and 2.039 and 3.490 and 2.759
- Ceramide 18:1/20:0 content of white adipose tissue (HFD + P053): 1.960 and 1.699 and 2.742 and 0.969 and 1.134 and 2.311 and 2.304 and 0.962 and 2.130 and 1.825
- Ceramide 18:1/22:0 content of white adipose tissue (HFD + P053): 2.875 and 3.855 and 6.655 and 3.344 and 2.629 and 5.839 and 6.468 and 2.833 and 3.815 and 4.292
- Ceramide 18:1/24:0 content of white adipose tissue (HFD + P053): 2.389 and 3.918 and 5.983 and 4.215 and 2.773 and 8.001 and 8.331 and 4.355 and 4.168 and 5.733
- Ceramide 18:1/24:1 content of white adipose tissue (HFD + P053): 6.096 and 8.629 and 13.174 and 7.744 and 4.866 and 14.789 and 13.116 and 7.511 and 9.181 and 8.543
- Ceramide 18:2/18:0 content of white adipose tissue (HFD + P053): 1.491 and 1.389 and 1.897 and 0.793 and 0.611 and 2.474 and 2.012 and 0.838 and 2.141 and 1.309
- Ceramide 18:2/22:0 content of white adipose tissue (HFD + P053): 1.850 and 2.082 and 3.075 and 1.861 and 1.560 and 3.228 and 3.861 and 1.939 and 2.443 and 2.309
- Ceramide 18:2/24:0 content of white adipose tissue (HFD + P053): 2.470 and 3.270 and 4.398 and 3.698 and 2.656 and 6.741 and 6.951 and 4.253 and 4.048 and 5.078
- Ceramide 18:2/24:1 content of white adipose tissue (HFD + P053): 3.997 and 4.831 and 5.433 and 4.596 and 3.171 and 8.097 and 7.476 and 4.878 and 5.777 and 4.939
- SM 34:1 content of white adipose tissue (HFD + P053): 138.16 and 152.76 and 183.91 and 125.06 and 78.40 and 408.02 and 164.42 and 164.75 and 189.26 and 180.12
- SM 34:2 content of white adipose tissue (HFD + P053): 3.94 and 4.36 and 5.23 and 3.24 and 2.75 and 11.91 and 3.96 and 4.10 and 5.05 and 4.63
- SM 36:1 content of white adipose tissue (HFD + P053): 30.80 and 33.18 and 60.02 and 24.06 and 21.10 and 82.70 and 34.64 and 35.42 and 37.81 and 37.83
- SM 36:2 content of white adipose tissue (HFD + P053): 13.65 and 13.63 and 9.26 and 9.31 and 4.59 and 33.15 and 15.13 and 9.69 and 16.44 and 14.20
- SM 38:1 content of white adipose tissue (HFD + P053): 14.96 and 15.80 and 25.22 and 10.28 and 10.56 and 34.10 and 16.91 and 15.85 and 15.88 and 17.49
- SM 38:2 content of white adipose tissue (HFD + P053): 5.67 and 4.70 and 6.95 and 2.89 and 2.82 and 9.23 and 2.88 and 2.78 and 5.06 and 4.54
- SM 40:1 content of white adipose tissue (HFD + P053): 19.38 and 29.35 and 36.60 and 23.08 and 16.71 and 83.76 and 47.96 and 37.67 and 36.07 and 44.84
- SM 40:2 content of white adipose tissue (HFD + P053): 7.44 and 8.09 and 11.71 and 6.74 and 5.23 and 19.76 and 11.68 and 7.96 and 9.66 and 10.63
- SM 42:1 content of white adipose tissue (HFD + P053): 8.78 and 13.45 and 15.34 and 10.58 and 7.52 and 42.80 and 18.82 and 17.05 and 15.81 and 20.73
- SM 42:2 content of white adipose tissue (HFD + P053): 28.15 and 38.15 and 51.68 and 31.28 and 20.55 and 119.48 and 50.63 and 47.22 and 48.80 and 50.51
- SM 42:3 content of white adipose tissue (HFD + P053): 9.88 and 12.29 and 14.77 and 10.62 and 6.46 and 36.48 and 16.98 and 13.87 and 16.08 and 14.63
- C18 ceramide or SM and other ceramide or SM species in adipose tissue (chow or HFD): did not significantly impact
